In BindingDB's records for doi:10.1016/s0960-894x(99)00680-0 (Univ. De Valencia, 2000):

Tests used:
[1] = target: Phospholipase A2, major isoenzyme, pancreatic (Sus scrofa) (UniProt P00592); experiment: Inhibition of secretory PLA2 activity in porcine pancreas using [3H]-oleate labelled membranes at a concentration of 10 uM
[2] = Inhibition of secretory PLA2 activity in bee venom enzyme using [3H]oleate labelled membranes at a concentration of 10 uM
[3] = Inhibition of secretory PLA2 activity in Naja naja venom enzyme using [3H]oleate labelled membranes at a concentration of 10 uM

Chain of Phospholipase A2, major isoenzyme, pancreatic (Sus scrofa) (P00592 whole entry, looked up): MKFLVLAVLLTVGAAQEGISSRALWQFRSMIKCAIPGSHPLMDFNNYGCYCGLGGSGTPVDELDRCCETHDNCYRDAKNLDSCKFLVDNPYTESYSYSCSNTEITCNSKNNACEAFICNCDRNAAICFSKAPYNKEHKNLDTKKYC

| Compound | IC50 [1] [µM] | IC50 [2] [µM] | IC50 [3] [µM] |
| --- | --- | --- | --- |
| CCCCCCCCCCCCCCC(CO)NCC (stereo not given) [2-Ethylamino-hexadecan-1-ol] | 1.4 | 6.1 |  |
| CCCCCCCCCCCCCCC(N)CN(CC)CC (stereo not given) [N*1*,N*1*-Diethyl-hexadecane-1,2-diamine] | 3.6 | 11 | 9.5 |
